What was measured:
[1] = Relaxivity measurements at 1.41 T in water and human plasma; assay type: physicochemical; conditions: 37° C., normalized to Gd
Procedure: Relaxivity measurements at 1.41 T were performed using a MiniSpec mq60 spectrometer (Bruker Analytik, Karlsruhe, Germany) operating at a resonance frequency of 60 MHz and a temperature of 37° C. The T1 relaxation times were determined using the standard inversion recovery (IR) method with a fixed relaxation delay of at least 5×T1. The variable inversion time (TI) was calculated automatically by the standard software of the MiniSpec mq60 (8 steps). The T2 measurements were performed by using a Carr-Purcell-Meiboom-Gill (CPMG) pulse sequence, applying a relaxation delay of at least 5×T1.
Each relaxivity measurement was performed using three different Gd concentrations (3 concentrations between 0.05 and 2 mM). The T1 and T2 relaxation times of the example compounds were measured in water and human plasma. Human plasma preparation: For each experiment fresh blood was taken from a volunteer using 10 mL citrate-tubes (Sarstedt S-Monovette 02.1067.001, 10 mL, Citrate). The 10 mL citrate-tubes were carefully inverted 10 times to mix blood and anticoagulant and centrifuged for 15 min at 1811 g at RT (Eppendorf, Centrifuge 5810R).
The relaxivities ri (where i=1, 2) were calculated based on the measured relaxation rates Ri in water and plasma:
where Ri(0) represent the relaxation rate of the respective solvent and CGd the concentration of the compound normalized to the Gadolinium. The Gadolinium concentrations of the investigated solutions were verified by Inductively Coupled Plasma Mass Spectrometry (ICP-MS Agilent 7500a, Waldbronn, Germany).

[2] = tested on: freshly isolated rat hepatocytes; assay: Uptake into freshly isolated rat hepatocytes; assay type: cell-based; conditions: uptake with OATP1B1/1B3 inhibitor Rifampicine 1:1, each 100 uM
Procedure: Freshly isolated rat hepatocytes were received as described before (Papeleu P. et al. (2006) Isolation of Rat Hepatocytes. In: Phillips I. R., Shephard E. A. (eds) Cytochrome P450 Protocols. Methods in Molecular Biology, vol 320. Humana Press, Totowa, NJ. https://doi.org/10.1385/1-59259-998-2:229). The rat hepatocytes were incubated (2.5·10^5 cells/well) for 2.5 to 4 h in collagen coated 24-well plates (Fa. Beckton Dickinson Biocoat, cell environments, Collagen I Cellware) in Williams E-medium (Fa. Sigma W1878) in an incubator (37° C., 5% CO2 and […]). After incubation the adherent hepatocytes were washed once with 37° C. Hepes carbonate transport buffer (500 μL/well). The test items and RC3 were prepared from stock solutions (180 to 500 mM concentration) in Hepes carbonate transport buffer at pH 7.4 to reach a final concentration of 100 μmol Gd/L. The specific uptake of the test item or RC3 into rat hepatocytes via OATP1B1 and OATP1B3 was challenged using a known OATP1B1/1B3 inhibitor (Rifampicine, Fa. Sigma R3501, test item and inhibitor 1:1 each 100 µM final concentration). The prepared rat hepatocyte plates were incubated with test solutions (500 μL/well) at 37° C. for 10 min using a thermoshaker (Fa. Grant Bio, PHMP). Triplicates were performed for each test item. After incubating the cells were washed once with cold PBS buffer (Fa. Gibco, Dulbeccos PBS (+)). After washing the intact hepatocytes were lysed by addition of 500 μL cold 0.01% Triton-X 100 in Millipore water for 1 h. The strongly hypo-osmolar water led to cell membrane rupture and the release of the intracellular Gd-compound. After 1 h 500 μL of 10 nM Terbium ICP-MS standard was added in 2% nitric acid and 0.01% Triton 100 before the Gadolinium concentrations in the lysate were measured using ICP-MS (Agilent 8900, singleQuad, integr. Time 0.3 s, no gas, 5 replicates, Gd m/z 157, Tb m/z 159). As a reference standard RC3 is used in the same well plate. The hepatocyte uptake of the test compound is calculated relative to RC3 (resulting in the unit % of RC3).

| SMILES | r1 human plasma [1] [L/mmol/s] | r1 water [1] [L/mmol/s] | Inhibition Rifampicine [2] [% inhibition] |
| --- | --- | --- | --- |
| CC(C(=O)NCC(=O)NCC(CNC(=O)CNC(=O)C(C)N1CCN(CC(=O)[O-])CCN(CC(=O)[O-])CCN(CC(=O)[O-])CC1)C(=O)NCCN(CCNC(=O)C(CNC(=O)CNC(=O)C(C)N1CCN(CC(=O)[O-])CCN(CC(=O)[O-])CCN(CC(=O)[O-])CC1)CNC(=O)CNC(=O)C(C)N1CCN(CC(=O)[O-])CCN(CC(=O)[O-])CCN(CC(=O)[O-])CC1)C(=O)CNC(=O)C(C)N1CCN(CC(=O)[O-])CCN(CC(=O)[O-])CCN(CC(=O)[O-])CC1)N1CCN(CC(=O)[O-])CCN(CC(=O)[O-])CCN(CC(=O)[O-])CC1.[Gd+3].[Gd+3].[Gd+3].[Gd+3].[Gd+3] (stereo not shown) [Compound 1] | 13.0 | 11.1 |  |
| CC(C(=O)NCC(=O)NCC(CNC(=O)CNC(=O)C(C)N1CCN(CC(=O)[O-])CCN(CC(=O)[O-])CCN(CC(=O)[O-])CC1)C(=O)NCCN(CCNC(=O)C(CNC(=O)CNC(=O)C(C)N1CCN(CC(=O)[O-])CCN(CC(=O)[O-])CCN(CC(=O)[O-])CC1)CNC(=O)CNC(=O)C(C)N1CCN(CC(=O)[O-])CCN(CC(=O)[O-])CCN(CC(=O)[O-])CC1)C(=O)C(CNC(=O)CNC(=O)C(C)N1CCN(CC(=O)[O-])CCN(CC(=O)[O-])CCN(CC(=O)[O-])CC1)CNC(=O)CNC(=O)C(C)N1CCN(CC(=O)[O-])CCN(CC(=O)[O-])CCN(CC(=O)[O-])CC1)N1CCN(CC(=O)[O-])CCN(CC(=O)[O-])CCN(CC(=O)[O-])CC1.[Gd+3].[Gd+3].[Gd+3].[Gd+3].[Gd+3].[Gd+3] (stereo not shown) [Compound 2] | 13.9 | 12.1 |  |
| C[C@H](C(=O)NCC(=O)N1CCN(C(=O)CNC(=O)[C@@H](C)N2CCN(CC(=O)[O-])CCN(CC(=O)[O-])CCN(CC(=O)[O-])CC2)CC(C(=O)NCCN(CCNC(=O)C2CN(C(=O)CNC(=O)[C@@H](C)N3CCN(CC(=O)[O-])CCN(CC(=O)[O-])CCN(CC(=O)[O-])CC3)CCN(C(=O)CNC(=O)[C@@H](C)N3CCN(CC(=O)[O-])CCN(CC(=O)[O-])CCN(CC(=O)[O-])CC3)C2)C(=O)C2CN(C(=O)CNC(=O)[C@@H](C)N3CCN(CC(=O)[O-])CCN(CC(=O)[O-])CCN(CC(=O)[O-])CC3)CCN(C(=O)CNC(=O)[C@@H](C)N3CCN(CC(=O)[O-])CCN(CC(=O)[O-])CCN(CC(=O)[O-])CC3)C2)C1)N1CCN(CC(=O)[O-])CCN(CC(=O)[O-])CCN(CC(=O)[O-])CC1.[Gd+3].[Gd+3].[Gd+3].[Gd+3].[Gd+3].[Gd+3] [Compound 5] | 14.3 | 13.0 |  |
| CC(C(=O)NCC(=O)N1CCN(C(=O)CNC(=O)C(C)N2CCN(CC(=O)[O-])CCN(CC(=O)[O-])CCN(CC(=O)[O-])CC2)CCN(C(=O)CNC(=O)C(C)N2CCN(CC(=O)[O-])CCN(CC(=O)[O-])CCN(CC(=O)[O-])CC2)CCN(C(=O)CNC(=O)C(C)N2CCN(CC(=O)[O-])CCN(CC(=O)[O-])CCN(CC(=O)[O-])CC2)CC1)N1CCN(CC(=O)[O-])CCN(CC(=O)[O-])CCN(CC(=O)[O-])CC1.[Gd+3].[Gd+3].[Gd+3].[Gd+3] (stereo not shown) [Compound 7] | 12.1 | 10.8 |  |
| CC(C(=O)NCC(=O)NCC(NC(=O)CNC(=O)C(C)N1CCN(CC(=O)[O-])CCN(CC(=O)[O-])CCN(CC(=O)[O-])CC1)C(=O)N1CC23CN(C(=O)C(CNC(=O)CNC(=O)C(C)N4CCN(CC(=O)[O-])CCN(CC(=O)[O-])CCN(CC(=O)[O-])CC4)NC(=O)CNC(=O)C(C)N4CCN(CC(=O)[O-])CCN(CC(=O)[O-])CCN(CC(=O)[O-])CC4)CC2(C1)CN(C(=O)C(CNC(=O)CNC(=O)C(C)N1CCN(CC(=O)[O-])CCN(CC(=O)[O-])CCN(CC(=O)[O-])CC1)NC(=O)CNC(=O)C(C)N1CCN(CC(=O)[O-])CCN(CC(=O)[O-])CCN(CC(=O)[O-])CC1)C3)N1CCN(CC(=O)[O-])CCN(CC(=O)[O-])CCN(CC(=O)[O-])CC1.[Gd+3].[Gd+3].[Gd+3].[Gd+3].[Gd+3].[Gd+3] (stereo not shown) [Compound 8] | 14.6 | 12.5 |  |
| O=C([O-])CN1CCN(CC(=O)[O-])CCN(CC(=O)N2CCN(C(=O)CN3CCN(CC(=O)[O-])CCN(CC(=O)[O-])CCN(CC(=O)[O-])CC3)CC(C(=O)N3CC4CN(C(=O)C5CN(C(=O)CN6CCN(CC(=O)[O-])CCN(CC(=O)[O-])CCN(CC(=O)[O-])CC6)CCN(C(=O)CN6CCN(CC(=O)[O-])CCN(CC(=O)[O-])CCN(CC(=O)[O-])CC6)C5)CC(C3)N4)C2)CCN(CC(=O)[O-])CC1.[Gd+3].[Gd+3].[Gd+3].[Gd+3] [Compound 9] |  | 7.4 |  |
| O=C([O-])CN1CCN(CC(=O)[O-])CCN(CC(=O)NCC(CNC(=O)CN2CCN(CC(=O)[O-])CCN(CC(=O)[O-])CCN(CC(=O)[O-])CC2)(CNC(=O)CN2CCN(CC(=O)[O-])CCN(CC(=O)[O-])CCN(CC(=O)[O-])CC2)CNC(=O)CN2CCN(CC(=O)[O-])CCN(CC(=O)[O-])CCN(CC(=O)[O-])CC2)CCN(CC(=O)[O-])CC1.[Gd+3].[Gd+3].[Gd+3].[Gd+3] [Compound 10] | 9.7 | 7.3 |  |
| CCOCCOc1ccc(CC(C(=O)[O-])N2CCN(CC(=O)[O-])CCN(C(CC)C(=O)O)CCN(CC(=O)[O-])CC2)cc1.[Gd+3] (stereo not shown) [Compound 13] | 7.4 | 4.5 | 99 |
| CCCCOc1ccc(CC(C(=O)[O-])N2CCN(CC(=O)[O-])CCN(CC(=O)[O-])CCN(CC(=O)O)CC2)cc1.[Gd+3] (stereo not shown) [Compound 14] | 13.3 | 4.3 | 98 |
| CCOCCOCCOc1ccc(CCC[C@@H](C(=O)O)N2CCN([C@@H](CO)C(=O)[O-])CCN([C@@H](CO)C(=O)[O-])CCN([C@@H](CO)C(=O)[O-])CC2)cc1.[Gd+3] [Compound 15] | 8.7 | 5.1 | 94 |
| CCOCCOCCOc1ccc(CCC[C@H](C(=O)O)N2CCN([C@H](CO)C(=O)[O-])CCN([C@H](CO)C(=O)[O-])CCN([C@H](CO)C(=O)[O-])CC2)cc1.[Gd+3] [Compound 16] | 9.0 | 5.3 | 92 |
| CCCC(C(=O)[O-])N1CCN(CC(=O)[O-])CCN(C(Cc2ccc(OCC)cc2)C(=O)O)CCN(CC(=O)[O-])CC1.[Gd+3] (stereo not shown) [Compound 17] | 7.5 | 4.4 | 99 |
| CCCCOc1ccc(CCCC(C(=O)O)N2CCN(CC(=O)O)CCN(CC(=O)O)CCN(CC(=O)O)CC2)cc1 (stereo not shown) [Compound 18] | 15.8 | 4.4 | 94 |
| CCCCOc1cccc(CCC[C@@H](C(=O)O)N2CCN([C@@H](CO)C(=O)[O-])CCN([C@@H](CO)C(=O)[O-])CCN([C@@H](CO)C(=O)[O-])CC2)c1.[Gd+3] [Compound 19] | 18.0 | 4.9 | 90 |
| CCOCCOCCOc1ccc(CC(C(=O)[O-])N2CCN(CC(=O)[O-])CCN(C(CC)C(=O)[O-])CCN(CC(=O)O)CC2)cc1.[Gd+3] (stereo not shown) [Compound 20] | 6.9 | 4.8 | 97 |
| O=C([O-])CN1CCN(CC(=O)[O-])CCN(C(Cc2ccc(OCC(F)(F)C(F)F)cc2)C(=O)[O-])CCN(CC(=O)O)CC1.[Gd+3] (stereo not shown) [Compound 21] | 10.8 | 3.5 | 90 |

— patent US20260077069A1, “COMBINATIONS OF CONTRAST AGENTS” (BAYER AKTIENGESELLSCHAFT, priority 2022, published 2026)
